Measured values reported in EP1202628B1, “NOVEL HYPOXANTHINE AND THIOHYPOXANTHINE COMPOUNDS” (EURO-CELTIQUE S.A., priority 1999, dated 2001).

These compounds were tested against T1, PDE V (Homo sapiens, UniProt O76074) (assay: Type V phosphodiesterase inhibition (hydrolysis of [3H]-cyclic GMP)). Conditions: enzyme isolated from platelets.
T1 construct: Fractions that contain PDE V are pooled and dialyzed overnight; from tissue
Assay type: biochemical
Protocol: Protocol for Enzyme Isloation: The Type V PDE is isolated using a procedure similar to that previously described by Weishaar et al., Hypertension 15:528, (1990). Briefly, 1-2 units of platelets are suspended in an equal volume of buffer A (20 mM Tris-HCl, pH 7.5, containing 2 mM magnesium acetate, I mM dithiothreitol, and 5 mM Na2EDTA) using a polytron. The proteinase inhibitor phenylmethylsulfonyl fluoride (PMSF) are also included in this buffer at a final concentration of 200 uM. This and all subsequent procedures are performed at 0-4°C. The homogenate is then centrifuged at 100,000 rpm for 60 minutes. The supernatant is then removed and filtered through four layers of gauze and applied to a DEAE-Trisacryl M column. The column is washed with several bed volumes of buffer B (20 mM Tris-HCl, pH 7.5, containing 2 mM magnesium acetate, 1 mM dithiothreitol, and […]) and eluted by two successive linear NaCl gradients (0.05-0.15 M, 300 ml total; 0.15-0.40 M, 200 ml total). Five ml fractions are collected and assayed for cyclic AMP and cyclic GMP PDE activity. Fractions that contain PDE V are pooled and dialyzed overnight against 4 L of buffer C (20 mM Tris-HCl, pH 7.5, containing 2 mM magnesium acetate and proteinase inhibitors). The dialyzed PDE V is then concentrated to 10% of the original volume, diluted to 50% with ethylene glycol monoethyl ether and stored at -20°C. PDE V can typically be retained for up to four weeks with little or no loss of activity.
Measuring Type V PDE Activity: Enzyme activity is assessed by measuring the hydrolysis of [^3H]-cyclic GMP, as described by Thompson et al. (Thompson, W.J., Teraski, W.L., Epstein, P.N., Strada, S.J.: Adv. Cyclic Nucleotide Res. 10:69, 1979). The cyclic GMP concentration used in this assay is 0.2 uM, which approximates to the Km value. Protein concentration is adjusted to ensure that no more than 15% of the available substrate is hydrolyzed during the incubation period.
All test compounds are dissolved in dimethyl sulfoxide (final concentration of 2.5%). This concentration of dimethyl sulfoxide inhibits enzyme activity by approximately 10%. The reference Type V PDE inhibitor zaprinast is evaluated with each assay.
The compounds are tested over concentration range: 0.1, 1, 10, 100 uM (n=1), and IC50 determinations are made using 5 appropriate concentrations (n=2).
`COc1ccc(Cn2cnc(=O)c3[nH]c(C(C)C)nc32)cc1OC` [3-(3,4-Dimethoxy-benzyl)-8-(1-methyl-ethyl)-hypoxanthine] showed an IC50 of 10.6 µM.
Work on `COc1ccc(Cn2cnc(=O)c3[nH]c(C(C)(C)OCc4ccc(F)cc4)nc32)cc1OC` [3-(3,4-Dimethoxybenzyl)-8-(1-(4-fluorobenzyloxy)-1-methyl-ethyl)-hypoxanthine] yielded an IC50 of 35.8 µM.
Compound `CC(C)c1nc2c([nH]1)c(=O)ncn2Cc1cccc(Cl)c1` [3-(3-Chloro-benzyl)-8-(1-methyl-ethyl)-hypoxanthine] has an IC50 of 6.32 µM.
For `COc1ccc(Cn2cnc(=O)c3[nH]c(C(C)(C)OCc4ccc(F)cc4)nc32)cc1OC1CCCC1` [3-(3-Cyclopentyloxy-4-methoxy-benzyl)-8-(1-(4-fluorobenzyloxy)-1-methyl-ethyl)-hypoxanthine], the IC50 was 14.5 µM.
`COc1ccc(Cn2cnc(=O)c3[nH]c(C(C)(C)O)nc32)cc1OC1CCCC1` [3-(3-Cyclopentyloxy-4-methoxy-benzyl)-8-(1-hydroxy-1-methyl-ethyl)-hypoxanthine] gave an IC50 of 193 µM.
`COc1ccc(Cn2cnc(=O)c3[nH]c(C(C)C)nc32)cc1OC1CCCC1` [3-(3-Cyclopentyloxy-4-methoxy-benzyl)-8-isopropyl-hypoxanthine] was tested, and the IC50 was 49 µM.
`COc1ccc(Cn2cnc(=O)c3[nH]c(C(C)(C)OCc4ccccc4)nc32)cc1OCc1ccccc1` [3-(3-benzyloxy-4-methoxy-benzyl)-8-(1-benzyloxy-1-methyl-ethyl)-hypoxanthine] was tested, and the IC50 was 12.5 µM.
`CC(C)c1nc2c([nH]1)c(=O)ncn2Cc1ccc(Cl)cc1` [3-(4-Chloro-benzyl)-8-(1-methyl-ethyl)-hypoxanthine] gave an IC50 of 7.6 µM.
`COc1ccc(Cn2cnc(=O)c3[nH]c(C(C)(C)OCc4ccccc4)nc32)cc1OC` [8-(1-Benzyloxy-1-methyl-ethyl)-3-(3,4-dimethoxybenzyl)-hypoxanthine] gave an IC50 of 10 µM.
`COc1ccc(Cn2cnc(=O)c3[nH]c(C(C)(C)OCc4ccccc4)nc32)cc1OC1CCCC1` [8-(1-benzyloxy-1-methyl-ethyl)-3-(3-cyclopentyloxy-4-methoxy-benzyl)-hypoxanthine] showed an IC50 of 8.28 µM.
Work on `COc1ccc(Cn2cnc(=O)c3[nH]c(COCc4ccccc4)nc32)cc1OC1CCCC1` [8-Benzyloxymethyl-3-(3-cyclopentyloxy-4-methoxy-benzyl)-hypoxanthine] yielded an IC50 of 7.53 µM.
